± gives the standard deviation of the averaged measurements.
Key:
Assay in all cases: CTG-3D luminescence at 96 h relative to day-0 seeding control (ratio to day 0); higher = more growth / less cytotoxicity; PDxO 3D drug screen, 96 h, CTG-3D normalised to day-0 seeding control.
[1] = system: HCI-002 (organoid from a triple-negative breast cancer xenograft)
[2] = system: HCI-008 (organoid from a HER2-enriched breast cancer xenograft)
[3] = system: HCI-017.E2 (organoid from an ER-positive breast cancer xenograft)
[4] = system: HCI-023 (organoid from a triple-negative breast cancer xenograft)
[5] = system: HCI-024 (organoid from a breast cancer xenograft)

CCN(c1cc(C#CCN2CCOCC2)cc(C(=O)NCc2c(C)cc(C)[nH]c2=O)c1C)[C@H]1CC[C@H](N(C)CCOC)CC1
CTG-3D luminescence at 96 h
Conditions	12.5 pM	0.00025 µM	0.005 µM	0.1 µM	1 µM	10 µM	100 µM	625 fM
[1], days in culture: 62	3.56	3.06	4.04	3.68	3.25	3.56	3.84	3.54
[1], days in culture: 82	3.83	3.88	2.98	3.77	3.86	3.46	2.82	3.6
[1], days in culture: 91	3.18	2.62	2.38	2.44	2.39	2.58	2.11	3.17
[1], days in culture: 191	3.6	3.27	3.28	3.84	3.37	3.62	3.54	3.51
[1], days in culture: 209	2.93	3.11	2.59	2.63	2.93	2.64	2.79	2.8
[1], days in culture: 227	4.96	4.84	4.63	5.11	4.67	5.77	4.2	5.52
[2], days in culture: 228	1.54 ± 0.067	1.571 ± 0.015	1.283 ± 0.0089	1.61 ± 0.1	1.59 ± 0.14	1.63 ± 0.48	1.43 ± 0.024	1.77 ± 0.43
[2], days in culture: 244	1.38	2.13	1.81	2.04	1.7	2.31	2.04	2.47
[3], days in culture: 85	1.88	2.36	2.01	2.07	1.45	1.61	1.9	1.77
[4], days in culture: 111	1.69	1.38	1.47	1.39	1.14	1.42	0.673	2.1
[4], days in culture: 128	1.51 ± 0.29	1.63 ± 0.46	1.57 ± 0.1	1.99 ± 0.051	1.77 ± 0.31	2.02 ± 0.27	1.09 ± 0.066	1.5 ± 0.32
[5], days in culture: 105	1.44	1.62	1.27	1.53	1.77	2.22	1.53	1.42
[5], days in culture: 122	1.71	2.29	2.04	1.85	2.34	3.46	1.5	2.18
[5], days in culture: 163	1.65	2.26	1.77	2.62	2.29	2.35	1.91	1.9

[3]
Conditions	CTG-3D luminescence at 96 h
12.5 pM	1.57 ± 0.12
0.00025 µM	1.65 ± 0.21
0.005 µM	1.91 ± 0.021
0.1 µM	1.81 ± 0.1
1 µM	1.72 ± 0.17
10 µM	2.01 ± 0.46
100 µM	1.5 ± 0.8
625 fM	2.01 ± 0.32
